Consider five compounds from patent US9388142B2, “Quinazolinone derivatives as PARP inhibitors” (MERCK PATENT GMBH, priority 2012, dated 2016).

The test system of one test is tankyrase 1/2. The test is described as follows: Cellular inhibition of tankyrase: increase of Axin2 level in DLD1 cells (Luminex). The format is cell-based. The settings on record: read-out: EC50 tankyrase 1/2 (cell assay), 24 hours. The procedure:
Measurement of Cellular Inhibition of Tankyrase
Cells of the colon carcinoma cell line DLD1 are plated in 96 well plates with 1.5×10^4 cells per well. Next day, cells are treated with a serial dilution of test compound in seven steps as triplicates with a final DMSO concentration of 0.3%. After 24 hours, cells are lysed in lysis buffer (20 mM Tris/HCl pH 8.0, 150 mM NaCl, 1% NP40, 10% Glycerol) and lysates are cleared by centrifugation through a 96 well filter plate (0.65 μm). […] The amount of isolated Axin2 protein is determined in a Luminex^200 machine (Luminex Corporation) according to the manufacturer's instruction by counting 100 events per well. […] For analysis, the obtained data are normalized against the untreated solvent control and fitted for determination of the EC50 values using the Assay Explorer software (Accelrys).

In test [1] the target is T1, GST-tagged Tankyrase-1 (1023-1327 aa) (Homo sapiens, UniProt O95271).
T1 construct: GST-tagged Tankyrase-1 (1023-1327 aa)
T1 sequence (O95271 1023-1327): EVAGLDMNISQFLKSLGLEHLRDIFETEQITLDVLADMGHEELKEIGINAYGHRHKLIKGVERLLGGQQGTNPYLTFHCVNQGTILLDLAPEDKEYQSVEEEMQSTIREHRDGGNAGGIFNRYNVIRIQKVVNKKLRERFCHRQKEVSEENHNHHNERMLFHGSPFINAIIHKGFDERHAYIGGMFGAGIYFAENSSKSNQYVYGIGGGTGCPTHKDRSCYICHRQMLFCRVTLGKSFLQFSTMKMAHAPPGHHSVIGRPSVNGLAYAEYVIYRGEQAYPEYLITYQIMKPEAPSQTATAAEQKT
The test is described as follows: biochemical. The settings on record: read-out: IC50 tankyrase 1 (enzyme assay). The text has this: (§1) aq (aqueous), h (hour), g (gram), L (liter), mg (milligram), MHz (Megahertz), min. (minute), mm (millimeter), mmol (millimole), mM (millimolar), m.p. (melting point), eq (equivalent), mL (milliliter), L (microliter), ACN (acetonitrile), AcOH (acetic acid), CDCl3 (deuterated chloroform), CD3OD (deuterated methanol), CH3CN (acetonitrile), c-hex (cyclohexane), DCC (dicyclohexyl carbodiimide), DCM (dichloromethane), DIC (diisopropyl carbodiimide), DIEA (diisopropylethyl-amine), DMF (dimethylformamide), DMSO (dimethylsulfoxide), DMSO-d6 (deuterated dimethylsulfoxide), EDC (1-(3-dimethyl-amino-propyl)-3-ethylcarbodiimide), ESI (Electro-spray ionization), EtOAc (ethyl acetate), Et2O (diethyl ether), EtOH (ethanol), HATU (dimethylamino-([1,2,3]triazolo[4,5-b]pyridin-3-yloxy)-methylene]-dimethylammonium hexafluorophosphate), HPLC (High Performance Liquid Chromatography), i-PrOH (2-propanol), K2CO3 (potassium carbonate), LC (Liquid Chromatography), MeOH (methanol), MgSO4 (magnesium sulfate), MS (mass spectrometry), MTBE (Methyl tert-butyl ether), NaHCO3 (sodium bicarbonate), NaBH4 (sodium borohydride), NMM (N-methyl morpholine), NMR (Nuclear Magnetic Resonance), PyBOP (benzotriazole-1-yl-oxy-trispyrrolidino-phosphonium hexafluorophosphate), RT (room temperature), Rt (retention time), SPE (solid phase extraction), TBTU (2-(1-H-benzotriazole-1-yl)-1,1,3,3-tetramethyluromium tetrafluoro borate), TEA (triethylamine), TFA (trifluoroacetic acid), THF (tetrahydrofuran), TLC (Thin Layer Chromatography), UV (Ultraviolet). Description of the In Vitro Assays Abbreviations: GST=Glutathione-S-transferase FRET=Fluorescence resonance energy transfer HTRF®=(homogenous time resolved fluorescence) HEPES=4-(2-hydroxyethyl)-1-piperazine ethanesulfonic acid buffer DTT=Dithiothreitol BSA=bovine serum albumin CHAPS=detergent; CHAPS=3[(3-cholamidopropyl)dimethylammonio]-1-propanesulfonate Streptavidin-XLent® is a high grade streptavidin-XL665 conjugate for which the coupling conditions have been optimized to yield a conjugate with enhanced performances for some assays, particularly those requiring high sensitivity.
(§2) The autoparsylation assay is run in two steps: the enzymatic reaction in which GST-tagged Tankyrase-1, resp Tankyrase-2 transferred biotinylated ADP-ribose to itself from biotinylated NAD as co-substrate and the detection reaction where a time resolved FRET between cryptate labelled anti-GST bound to the GST tag of the enzyme and Xlent® labelled-streptavidin bound the biotin-parsylation residue is analysed. The autoparsylation activity was detectable directly via the increase in HTRF signal.
(§3) The autoparsylation assay is performed as 384-well HTRF® (Cisbio, Codolet, France) assay format in Greiner low volume nb 384-well microtiter plates and is used for high throughput screen. […] The reaction is stopped by the addition of 1 μl 50 mM EDTA solution. […] The ratio of the emission signals is determined. The full value used is the inhibitor-free reaction. […] The inhibitory values (IC50) are determined using either the program Symyx Assay Explorer® or Condosseo® from GeneData.

Test [2] addresses GST-tagged Tankyrase-2 (873-1166 aa) (Homo sapiens, UniProt Q9H2K2). Description: biochemical.
Excerpt: as §1, §2, §3

Another test deals with T2, His-tagged Parp-1 (Homo sapiens, UniProt P09874).
T2 construct: purchased Enzo Life Sciences GmbH, Lörrach, Germany
T2 sequence (P09874 whole entry): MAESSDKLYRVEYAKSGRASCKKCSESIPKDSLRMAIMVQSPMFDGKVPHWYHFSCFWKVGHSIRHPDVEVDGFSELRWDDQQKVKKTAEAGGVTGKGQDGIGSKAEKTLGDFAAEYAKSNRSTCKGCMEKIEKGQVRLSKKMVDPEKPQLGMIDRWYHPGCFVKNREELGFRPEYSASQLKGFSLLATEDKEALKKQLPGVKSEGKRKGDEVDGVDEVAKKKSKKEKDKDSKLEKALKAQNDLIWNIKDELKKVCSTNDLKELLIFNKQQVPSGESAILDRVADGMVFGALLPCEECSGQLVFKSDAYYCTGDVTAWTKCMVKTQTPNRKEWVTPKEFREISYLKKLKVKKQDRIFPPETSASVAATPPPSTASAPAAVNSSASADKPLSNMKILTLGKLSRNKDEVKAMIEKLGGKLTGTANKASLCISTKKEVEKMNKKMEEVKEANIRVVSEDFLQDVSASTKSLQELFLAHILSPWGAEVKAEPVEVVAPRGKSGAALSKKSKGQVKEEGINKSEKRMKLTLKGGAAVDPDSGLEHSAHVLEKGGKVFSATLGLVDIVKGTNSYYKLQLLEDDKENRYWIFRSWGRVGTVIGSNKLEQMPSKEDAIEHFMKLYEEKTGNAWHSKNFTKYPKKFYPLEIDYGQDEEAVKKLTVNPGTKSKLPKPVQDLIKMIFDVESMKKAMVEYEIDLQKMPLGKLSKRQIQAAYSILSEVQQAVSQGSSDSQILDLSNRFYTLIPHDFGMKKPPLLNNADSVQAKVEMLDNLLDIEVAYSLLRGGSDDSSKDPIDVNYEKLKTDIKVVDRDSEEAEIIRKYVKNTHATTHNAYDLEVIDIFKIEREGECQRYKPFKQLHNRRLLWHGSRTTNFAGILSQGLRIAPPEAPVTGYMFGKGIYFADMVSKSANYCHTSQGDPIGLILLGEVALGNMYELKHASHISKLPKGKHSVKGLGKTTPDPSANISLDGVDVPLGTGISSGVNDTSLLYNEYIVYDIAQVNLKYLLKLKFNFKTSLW
Description: PARP-1 autoparsylation assay (HTRF). The format is biochemical. The text has this:
Description of the PARP1 Assay
Biochemical Activity Testing of PARP-1: Autoparsylation Assay
The autoparsylation assay is run in two steps: the enzymatic reaction in which His-tagged Parp-1 transfers biotinylated ADP-ribose/ADP-ribose to itself from biotinylated NAD/NAD as co-substrate and the detection reaction where a time resolved FRET between cryptate labelled anti-His antibody bound to the His tag of the enzyme and Xlent® labelled-streptavidin bound the biotin-parsylation residue is analysed. The autoparsylation activity is detectable directly via the increase in HTRF signal.
The autoparsylation assay is performed as 384-well HTRF® (Cisbio, Codolet, France) assay format in Greiner low volume nb 384-well microtiter plates. 35 nM His-tagged Parp-1 (human, recombinant, Enzo Life Sciences GmbH, Lörrach, Germany) and a mixture of 125 nM bio-NAD (Biolog, Life science Inst., Bremen, Germany) and 800 nM NAD as co-substrate are incubated in a total volume of 6 μl (100 mM Tris/HCl, 4 mM Mg-chloride, 0.01% IGEPAL® CA630, 1 mM DTT, 0.5% DMSO, pH 8, 13 ng/μl activated DNA (BPS Bioscience, San Diego, US)) in the absence or presence of the test compound (10 dilution concentrations) for 150 min at 23° C. The reaction is stopped by the addition of 4 μl of the Stop/detection solution (70 nM SA-Xlent® (Cisbio, Codolet, France), 2.5 nM Anti-His-K® (Eu-labelled anti-His, Cisbio, Codolet, France) in 50 mM HEPES, 400 mM KF, 0.1% BSA, 20 mM EDTA, pH 7.0). After 1 h incubation at room temperature the HTRF iss measured with an Envision multimode reader (Perkin Elmer LAS Germany GmbH) at excitation wavelength 340 nm (laser mode) and emission wavelengths 615 nm and 665 nm. The ratio of the emission signals is determined. The full value used is the inhibitor-free reaction. The pharmacological zero value used is Olaparib (LClabs, Woburn, US) in a final concentration of 1 The inhibitory values (IC50) are determined using either the program Symyx Assay Explorer® or Condosseo® from GeneData.
On the technique in general: TR-FRET usually uses a lanthanide donor and a delayed reading to cut background.

SMILES strings stand for the structures.

Chain of GST-tagged Tankyrase-2 (873-1166 aa) (Q9H2K2 873-1166): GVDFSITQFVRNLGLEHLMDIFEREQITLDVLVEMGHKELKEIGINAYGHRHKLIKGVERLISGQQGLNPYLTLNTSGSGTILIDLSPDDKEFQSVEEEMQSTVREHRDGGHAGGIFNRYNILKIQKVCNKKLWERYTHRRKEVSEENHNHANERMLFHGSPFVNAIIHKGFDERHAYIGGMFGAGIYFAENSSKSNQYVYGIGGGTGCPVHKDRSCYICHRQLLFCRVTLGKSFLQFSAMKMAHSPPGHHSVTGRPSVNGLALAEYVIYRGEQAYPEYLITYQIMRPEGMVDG

By IC50 is commonly meant the concentration needed to halve the response being measured. As for `CCC(O)(CC)c1ccc(-c2nc3ccc(F)cc3c(=O)[nH]2)cc1` [Compound A14, 2-[4-(1-ethyl-1-hydroxy-propyl)phenyl]-6-fluoro-3H-quinazolin-4-one], in the test with tankyrase 1/2, the EC50 is under 300 nM. Also, the IC50 in test [1] is under 300 nM; in test [2], 300 to 3000 nM; on His-tagged Parp-1 it was 300 to 3000 nM.

In the case of `O=c1[nH]c(-c2ccc(C3(O)CCCC3)cc2)nc2ccc(F)cc12` [Compound A16, 6-fluoro-2-[4-(1-hydroxycyclopentyl)phenyl]-3H-quinazolin-4-one], the EC50 in the test with tankyrase 1/2 fell in the range of 300 to 3000 nM. Further, the IC50 in test [1] is under 300 nM; in test [2], 300 to 3000 nM; at His-tagged Parp-1, 300 to 3000 nM.

As to `CC(C)(O)c1ccc(-c2nc3c(F)cc(F)c(F)c3c(=O)[nH]2)cc1` [Compound A26, 5,6,8-trifluoro-2-[4-(1-hydroxy-1-methyl-ethyl)-phenyl]-3H-quinazolin-4-one], the EC50 with tankyrase 1/2 is under 300 nM. Further, the results for the IC50 (in test [1]; in test [2]; on His-tagged Parp-1) were under 300 nM, 300 to 3000 nM and 300 to 3000 nM, respectively.

Take `Cc1cc(F)cc2c(=O)[nH]c(-c3ccc(N4CCC(O)CC4)cc3)nc12` [Compound A29, 6-fluoro-2-[4-(4-hydroxy-piperidin-1-yl)-phenyl]-8-methyl-3H-quinazolin-4-one]: the EC50 in the test with tankyrase 1/2 is under 300 nM. For the same compound, the IC50 in test [1] is 300 to 3000 nM; in test [2] it was 300 to 3000 nM; against His-tagged Parp-1, under 300 nM.

On to `Cc1cc(F)cc2c(=O)[nH]c(-c3ccc(N4CCC(CO)CC4)cc3)nc12` [Compound A31, 6-fluoro-2-[4-(4-hydroxymethyl-piperidin-1-yl)-phenyl]-8-methyl-3H-quinazolin-4-one], for which the EC50 in the test with tankyrase 1/2 was under 300 nM. Also, the IC50 (in test [1]; in test [2]; against His-tagged Parp-1) was 300 to 3000 nM each time.
